From patent US20230117205A1, “B7-H4 ANTIBODY-DRUG CONJUGATES FOR THE TREATMENT OF CANCER” (SEAGEN INC., priority 2021, published 2023)

Experiments:
[1] = test system: WIL2S and RAJI cells transduced to express human B7-H4; assay: CDC, Sytox Green, 10% human serum; format: cell-based
Protocol: Antibodies have the ability to recruit complement proteins triggering complement-dependent cytotoxicity (CDC).
Using complement media (RPMI containing 10% human serum (Complement Technology, Inc. #NHS)), test antibodies and controls were titrated with a 3-fold dilution ranging from 50-0.02 μg/mL and 100 μL/well of the titrations were plated over the target cells. To measure total cell death, 2% Triton X (EMD Millipore Corp. #648463-50ML) was used as a positive control. Test plate was incubated for 2 hours at 37° C. in a humidity-controlled incubator and then Sytox Green fluorescence was read on an Envision plate reader.

[2] = Non-human primate (NHP) and rat tox study; format: in vivo, rat and cynomolgus monkey
Excerpt: The nonclinical safety profile of SGN-B7H4V supports the proposed initial clinical development plan. […] The hematologic toxicity is consistent with the mechanism of action (MOA) for MMAE.

[3] = test system: MDA-MB-468; assay: In vitro cytotoxicity, 96-hour 3D spheroid, CellTiter-Glo; format: cell-based, human
Protocol: (§1) The cytotoxicity was evaluated when cells were grown in 3D spheroid (round bottom, ultra-low attachment plates) conditions.
(§2) Cancer cell lines expressing B7-H4 (SKBR3, MX-1, and MDA-MB-468) as well as a non-B7-H4-expressing cell line (MDA-MB-231) were thawed from cryovials stored at […] into complete growth media and allowed to grow and recover from thaw at 37° C. and 5% CO2 until cell viability determined by Vi-CELL XR (Beckman Coulter, Indianapolis, Ind.) were above 90%. Cells were then counted and plated at 2000, 2200, 2200, and 2200 cells/well respectively. Cells were plated in 150 μL complete growth media in round bottom, black walled, ultra-low attachment, 96-well plates (Corning 4520). Cell plates were placed at 37° C. and 5% CO2 overnight to allow cells to adhere. ADCs were thawed and 4×8-point serial dilutions were prepared (final dose range 1000-0.061 ng/mL) in RPMI 1640+20% FBS. Fifty μL of each dilution were then added to each cell plate in triplicate. Cells were then left to incubate at 37° C. and 5% CO2 for 96 hours. Cell plates were then removed from the incubator and allowed to cool to room temperature for 30 minutes. CellTiter-Glo® luminescent assay (Promega Corporation, Madison, Wis.) was prepared according to Promega's protocol. One hundred uL CellTiter-Glo® were added to assay plates using a Formulatrix Tempest liquid handler (Formulatrix, Inc.) and plates were heat sealed using an ALPS300 automated microplate heat sealer (Thermo Scientific) and protected from light for 30 minutes at room temperature. The luminescence of each plate was then determined using an EnVision Multilabel plate reader (Perkin Elmer, Waltham, Mass.). […] One hundred uL of lysed spheroid suspension was then transferred to a black walled, flat bottom 96 well plate and read on the EnVision Multilabel plate reader (Perkin Elmer, Waltham, Mass.). Raw data were then analyzed in Graphpad Prism (San Diego, Calif.) using a non-linear, 4-parameter curve fit model (Y=Bottom+[Top-Bottom]/[1+10^[[Log EC50-X]×HillSlope]]). […]

[4] = test system: MDA-MB-231; assay: as above; format: cell-based, human; conditions: MDA-MB-231 (non-B7-H4-expressing)
Protocol: as §1, §2

[5] = test system: SKBR3; assay: as above; format: cell-based, human
Protocol: as §1, §2

[6] = test system: MDA-MB-468 xenograft tumors; assay: RNAseq of treated MDA-MB-468 xenograft tumors; format: in vivo, NSG mice; conditions: single 3 mg/kg dose; compared to vehicle control
Protocol: Specifically, female NSG mice were implanted with 1×10^6 MDA-MB-468 cells in 25% Matrigel H C subcutaneously. Once tumor volumes reached ˜250-300 mm^3, mice were randomized into treatment groups of 6 mice each and treated with a single 3 mg/kg dose of ADC or mAb, or vehicle control (20 mM Histidine buffer, pH 6.0) injected intraperitoneally (i.p.). Stock concentrations of ADC were diluted to desired concentration with 20 mM Histidine buffer, pH 6.0 or and stock concentration of mAb were diluted to desired concentration with 0.01% Tween20 in PBS. Twenty-four hours prior to dosing, each animal was treated with 10 mg/kg hIVIG. One week following treatment, tumors were harvested, cut in half, and processed for RNAseq (frozen at −80° C.) or formalin-fixed and paraffin-embedded for immunohistochemical (IHC) analysis.
For RNAseq, RNA was extracted from tumors and library preparation for […] sequencing was performed using PolyA selection. RNA was sequenced using the Illumina HiSeq platform 2×150 bp configuration. […] Adaptors were trimmed using cutadapt version 1.16, reads were aligned to a composite (GRCh38(h38)/GRCm38(mm10)) genome using STAR version 2.5.2. Transcripts and genes were quantitated via RSEM version 1.2.31. Quantitative and statistical differences were determined between groups of samples using DESeq2 version 1.28.1. […]

[7] = test system: MDA-MB-468 xenograft tumors; assay: Gene ontology (GO) term analysis of treated MDA-MB-468 xenograft tumors; format: in vivo, NSG mice
Protocol: For RNAseq, RNA was extracted from tumors and library preparation for […] sequencing was performed using PolyA selection. RNA was sequenced using the Illumina HiSeq platform 2×150 bp configuration. RNA extraction, library preparation, and sequencing were performed by GENEWIZ. Adaptors were trimmed using cutadapt version 1.16, reads were aligned to a composite (GRCh38(h38)/GRCm38(mm10)) genome using STAR version 2.5.2. Transcripts and genes were quantitated via RSEM version 1.2.31. Quantitative and statistical differences were determined between groups of samples using DESeq2 version 1.28.1. GO term and gene set enrichment analysis was performed with clusterProfiler version 3.16.1, msigdbr version 7.1.1, AnnotationDbi version 1.50.3, org.Mm.eg.db version 3.11.4, and org.Hs.eg.db version 3.11.4. […] Only GO terms with a p-value and q-value of 0.05 or less were retained. Figures were replotted using GraphPad Prism. The raw fastq files as well as the mapped BAM files are stored on the Seagen linux storage location: /fc1/jobs/research/RNASeq/.

SGN-B7H4V: ADC of fully human IgG1 anti-B7-H4 mAb conjugated to monomethyl auristatin E (MMAE) via a protease-cleavable valine-citrulline linker (vedotin)
lysis (CDC) [1]: did not induce lysis | primary target organs of toxicity ([2]; pivotal GLP and non-GLP studies): hematological system, testes, and ovaries | tolerability ([2]; rat and cynomolgus monkey): tolerated in the rat and cynomolgus monkey | ×50 [3]: 105 ng/mL | ×50 [4]: >1000 ng/mL | ×50 [5]: 4 ng/mL | upregulation of human transcripts encoding cytokines (CXCL10 and CXCL1) [6]: 2-3 fold | human gene categories related to apoptosis/programmed cell death pathways ([7]; compared to B7H41001 mAb-DM1): elevated | mouse immune-related GO terms ([7]; compared to B7H41001 mAb-DM1): increased | human gene categories related to the immune response ([7]; compared to B7H41001 mAb-DM4): elevated | mouse immune-related gene categories ([7]; compared to B7H41001 mAb-DM4): elevated
